Data as given in US9266876B2 (Actelion Pharmaceuticals Ltd., priority 2012, dated 2016).

Columns and labels:
[1] = tested on: tumor cells; conditions: administration of AMG487; Pradelli, E. et al. Int J Cancer 2009, 125, 2586; cited from earlier work
[2] = biological target: human CXCR3A (Homo sapiens (Human), UniProt P49682); experiment: FLIPR assay; assay type: cell-based; conditions: CHO-K1 cells expressing the human CXCR3A coupled to Galpha(16); CXCL10 agonist 20 nM; Fluo-4-AM fluorescence; mean values if determined several times
Sequence of human CXCR3A (P49682 whole entry): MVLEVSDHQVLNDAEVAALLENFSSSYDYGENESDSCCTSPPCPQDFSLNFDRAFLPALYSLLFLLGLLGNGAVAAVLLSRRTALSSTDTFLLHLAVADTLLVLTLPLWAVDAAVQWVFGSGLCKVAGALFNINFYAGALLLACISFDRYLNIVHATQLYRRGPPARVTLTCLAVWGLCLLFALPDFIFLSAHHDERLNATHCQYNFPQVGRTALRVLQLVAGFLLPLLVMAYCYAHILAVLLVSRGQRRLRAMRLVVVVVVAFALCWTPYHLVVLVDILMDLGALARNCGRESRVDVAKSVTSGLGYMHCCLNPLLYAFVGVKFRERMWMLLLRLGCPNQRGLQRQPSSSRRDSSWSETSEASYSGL
How it was run: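 CHO-K1 cells expressing CXCR3A coupled to Gα16 were loaded with Fluo-4-AM for 1 h in Hepes-buffered HBSS, pH 7.4, with 5 mM probenecid. Compound dilutions were added on the FLIPR, followed by CXCL10 (added as a 20 nM solution). Baseline-subtracted peak fluorescence was fitted to a single-site curve for IC50.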

[3] = biological target: CXCR3 (Homo sapiens (Human), UniProt P49682); experiment: Receptor internalization assay; assay type: cell-based; conditions: human whole blood; final CXCL10 concentration 9 nM; 30 min 37° C.; CXCR3 cell surface expression on CD3 positive cells, flow cytometer; read-out: Internalization IC50
Sequence of CXCR3 (P49682 whole entry): as above
How it was run: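 In human whole blood, compounds were incubated with CXCL10 (9 nM final) for 30 min at 37 °C to drive receptor internalization, then stained with anti-CXCR3/CD3 antibodies and lysed of red cells. Flow cytometry measured mean surface CXCR3 fluorescence on CD3+ cells, and IC50 came from single-site dose-response fits.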

Compound	metastasis of tumor cells to the lungs [1]	IC50 [2] [nM]	IC50 [3] [nM]
CCOc1ccc(-n2c([C@@H](C)N(Cc3cccnc3)C(=O)Cc3ccc(OC(F)(F)F)cc3)nc3ncccc3c2=O)cc1 [AMG487]	could limit the metastasis of tumor cells to the lungs		
Cc1nc(C)n(CC(=O)N2CCN(c3sc(C(F)(F)F)nc3-c3nc4ccc(C5CCOCC5)cc4[nH]3)C[C@H]2C)n1 [Example 238, 2-(3,5-Dimethyl-[1,2,4]triazol-1-yl)-1-((R)-2-methyl-4-{4-[6-(tetrahydro-pyran-4-yl)-1H-benzoimidazol-2-yl]-2-trifluoromethyl-thiazol-5-yl}-piperazin-1-yl)-ethanone]		1	103
Cc1nc(C)n(CC(=O)N2CCN(c3sc(C(F)(F)F)nc3-c3nc4cc(CCN)ccc4[nH]3)C[C@H]2C)n1 [Example 239, 1-((R)-4-{4-[5-(2-Amino-ethyl)-1H-benzoimidazol-2-yl]-2-trifluoromethyl-thiazol-5-yl}-2-methyl-piperazin-1-yl)-2-(3,5-dimethyl-[1,2,4]triazol-1-yl)-ethanone]		0.1	324
Cc1nc(C)n(CC(=O)N2CCN(c3sc(C(F)(F)F)nc3-c3nc4ccc(C5CCNCC5)cc4[nH]3)C[C@H]2C)n1 [Example 240, 2-(3,5-Dimethyl-[1,2,4]triazol-1-yl)-1-{(R)-2-methyl-4-[4-(6-piperidin-4-yl-1H-benzoimidazol-2-yl)-2-trifluoromethyl-thiazol-5-yl]-piperazin-1-yl}-ethanone]		2	222
Cc1nc(C)n(CC(=O)N2CCN(c3sc(C(F)(F)F)nc3-c3nc4cc(OC(F)(F)F)ccc4[nH]3)C[C@H]2C)n1 [Example 241, 2-(3,5-Dimethyl-[1,2,4]triazol-1-yl)-1-{(R)-2-methyl-4-[4-(5-trifluoromethoxy-1H-benzoimidazol-2-yl)-2-trifluoromethyl-thiazol-5-yl]-piperazin-1-yl}-ethanone]		2	169
Cc1nc(C)n(CC(=O)N2CCN(c3sc(C(F)(F)F)nc3-c3nc4ccc(OC5CNC5)cc4[nH]3)C[C@H]2C)n1 [Example 242, 1-((R)-4-{4-[6-(Azetidin-3-yloxy)-1H-benzoimidazol-2-yl]-2-trifluoromethyl-thiazol-5-yl}-2-methyl-piperazin-1-yl)-2-(3,5-dimethyl-[1,2,4]triazol-1-yl)-ethanone]		4	438
Cc1nc(C)n(CC(=O)N2CCN(c3sc(C(F)(F)F)nc3-c3nc4ccccc4[nH]3)C[C@@H]2C)n1 [Example 243, 1-{(S)-4-[4-(1H-Benzoimidazol-2-yl)-2-trifluoromethyl-thiazol-5-yl]-2-methyl-piperazin-1-yl}-2-(3,5-dimethyl-[1,2,4]triazol-1-yl)-ethanone]		3	1120
Cc1nc(C)n(CC(=O)N2CCN(c3sc(C(F)(F)F)nc3-c3nc4ccc(CCN5CCCC5)cc4[nH]3)C[C@H]2C)n1 [Example 244, 2-(3,5-Dimethyl-[1,2,4]triazol-1-yl)-1-((R)-2-methyl-4-{4-[6-(2-pyrrolidin-1-yl-ethyl)-1H-benzoimidazol-2-yl]-2-trifluoromethyl-thiazol-5-yl}-piperazin-1-yl)-ethanone]		23	531
